By inhibition is commonly meant the relative decrease from the control value, in per cent. One may read the IC50 as the point on the concentration scale where inhibition reaches its midpoint.

The source made the active and inactive calls. The rule behind the calls is not given here.

The results in this text go back to ChEMBL document CHEMBL3046576, “Rational exploration of new pyridinium-based HSP90 inhibitors tailored to thiamine structure” (Med Chem Res, 2012).

Assay [1] has as its target T1, Heat shock protein HSP 90-alpha (Homo sapiens, UniProt P07900). The assay can be described thus: Inhibition of recombinant Homo sapiens (human) Hsp90 alpha ATPase activity assessed as inorganic phosphate release at 10 uM by malachite green colorimetric method.
The target of assay [2] is T1, Heat shock protein HSP 90-alpha. Briefly: Inhibition of recombinant Homo sapiens (human) Hsp90 alpha ATPase activity assessed as inorganic phosphate release by malachite green colorimetric method.

For `Cc1ncc(C[n+]2csc(CCO)c2C)c(N)n1` [THIAMINE ION], the inhibition in assay [1] worked out at 40%. In assay [2], the IC50 came to 12.5 µM.
For the compound `CSc1ccc(NC(=O)c2ccc[n+](CC(=O)Nc3ccc(C)cc3)c2)cc1`, the inhibition in assay [1] came to 18%.
In the case of `CSc1ccc(NC(=O)c2ccc[n+](CC(=O)Nc3ccc(Cl)cc3)c2)cc1`, in assay [1], the inhibition is 19%.
Regarding `O=C(C[n+]1cccc(C(=O)Nc2ccccc2)c1)Nc1ccc([N+](=O)[O-])cc1`, the inhibition in assay [1] was found to be 11%.
With `CC(=O)NS(=O)(=O)c1ccc(NC(=O)C[n+]2cccc(C(N)=O)c2)cc1`, the inhibition in assay [1] was determined as 36%. For the same compound, in assay [2], the IC50 was 12.7 µM.
As to `Cc1ccc(NC(=O)C[n+]2cccc(C(=O)Nc3ccc([N+](=O)[O-])cc3)c2)cc1`, the inhibition in assay [1] amounted to 21%.
Regarding `NC(=O)c1ccc[n+](CC(=O)Nc2ccc([N+](=O)[O-])cc2)c1`, the inhibition in assay [1] was 62%. In addition, the IC50 in assay [2] amounted to 7.6 µM.
With `NC(=O)c1ccc[n+](CCc2ccccc2)c1`, in assay [1], the inhibition is 9%.
Regarding `O=C(C[n+]1ccccc1)Nc1ccc([N+](=O)[O-])cc1`, the inhibition in assay [1] came out at 34%. Moreover, the half-inhibitory concentration (IC50) in assay [2] was found to be 14.9 µM.
Turning to `N=C(N)NS(=O)(=O)c1ccc(NC(=O)C[n+]2ccccc2)cc1`, in assay [1], the inhibition came to 20%.
Still for that read-out and setting: in the case of `COc1ccc(NC(=O)C[n+]2cccc(C(N)=O)c2)cc1` it was 20%.
As to `Cc1cccc(NC(=O)C[n+]2cccc(C(N)=O)c2)c1`, the inhibition in assay [1] is 34%. In addition, the IC50 in assay [2] was 13.2 µM.
`Cc1cccc(NC(=O)C[n+]2ccccc2)c1`: the inhibition in assay [1] worked out at 12%.
Consider `Cc1ccc(NC(=O)C[n+]2cccc(C(=O)Nc3ccc(Cl)cc3)c2)cc1`, for which, in assay [1], the inhibition amounted to 48%. Also, in assay [2], the IC50 stood at 17.3 µM.
Regarding `C=CCNC(=O)c1ccc[n+](CC(=O)Nc2ccc([N+](=O)[O-])cc2)c1`, the inhibition in assay [1] turned out to be 20%.
For `O=C(C[n+]1cccc(C(=O)Nc2ccc(Cl)cc2)c1)Nc1ccc([N+](=O)[O-])cc1`, the inhibition in assay [1] came out at 24%.
On to `COc1ccc(NC(=O)c2ccc[n+](CC(=O)Nc3ccc(S(N)(=O)=O)cc3)c2)cc1`, for which the inhibition in assay [1] is 23%.
For the compound `COc1ccc(NC(=O)c2ccc[n+](CC(=O)Nc3ccc(C)cc3)c2)cc1`, the inhibition in assay [1] turned out to be 20%.
For the compound `CSc1ccc(NC(=O)c2ccc[n+](CC(=O)Nc3ccc([N+](=O)[O-])cc3)c2)cc1`, the inhibition in assay [1] turned out to be 3%.
Regarding `Cc1ccc(NC(=O)C[n+]2cccc(C(N)=O)c2)cc1`, the inhibition in assay [1] came to 34%. In addition, the IC50 in assay [2] is 42.2 µM.
Consider `O=C(C[n+]1cccc(C(=O)Nc2ccc(Cl)cc2)c1)Nc1ccc(Cl)cc1`, for which, in assay [1], the inhibition result is “inactive”.
As to `NS(=O)(=O)c1ccc(NC(=O)C[n+]2cccc(C(=O)Nc3ccc(Cl)cc3)c2)cc1`, the inhibition in assay [1] was 3%.
Still for that read-out and setting: in the case of `NC(=O)c1ccc[n+](CC(=O)NCc2ccccc2)c1` it was 20%; in that of `Cc1cccc(NC(=O)c2ccc[n+](CC(=O)Nc3ccc(Cl)cc3)c2)c1`, 24%; in that of `COc1ccc(NC(=O)c2ccc[n+](CC(=O)Nc3ccc([N+](=O)[O-])cc3)c2)cc1`, “inactive”.
Still for that read-out and setting: in the case of `N=C(N)NS(=O)(=O)c1ccc(NC(=O)C[n+]2cccc(C(N)=O)c2)cc1` it was 29%; in that of `COc1ccc(NC(=O)C[n+]2cccc(C(=O)Nc3ccc(OC)cc3)c2)cc1`, 3%; in that of `O=C(C[n+]1ccccc1)Nc1ccccc1`, 3%.
With `Cc1ccccc1NC(=O)C[n+]1cccc(C(N)=O)c1`, in assay [1], the inhibition was 8%.
Take `NC(=O)c1ccc[n+](CC(=O)NCCc2ccccc2)c1`: the inhibition in assay [1] was determined as 46%. Further, the concentration for half-maximal inhibition (IC50) in assay [2] stood at 16.4 µM.
Regarding `COc1ccc(NC(=O)C[n+]2cccc(C(=O)Nc3ccc([N+](=O)[O-])cc3)c2)cc1`, in assay [1], the inhibition result was “inactive”.
As to `O=C(C[n+]1ccccc1)Nc1ccc(Cl)cc1`, the inhibition in assay [1] was 3%.
`C=CCNC(=O)C[n+]1cccc(C(N)=O)c1`: the inhibition entry in assay [1] is “inactive”.
Regarding `COc1ccc(NC(=O)C[n+]2cccc(C(=O)Nc3ccc(SC)cc3)c2)cc1`, the inhibition in assay [1] was 29%.
As for `NC(=O)c1ccc[n+](Cc2ccccc2)c1`, in assay [1], the inhibition was 10%.
For `O=C(C[n+]1ccccc1)NCc1ccccc1`, the inhibition in assay [1] turned out to be 36%. Further, in assay [2], the IC50 was found to be 49.6 µM.
Turning to `C=CCNC(=O)c1ccc[n+](CC(=O)Nc2ccc(Cl)cc2)c1`, in assay [1], the inhibition worked out at 1.6%.
On to `NS(=O)(=O)c1ccc(NC(=O)C[n+]2cccc(C(=O)Nc3ccccc3)c2)cc1`, for which the inhibition in assay [1] was 47%. The IC50 in assay [2] is 26.6 µM.
Turning to `CCOC(=O)C[n+]1cccc(C(N)=O)c1`, the inhibition in assay [1] amounted to 13%.
With `COc1ccc(NC(=O)c2ccc[n+](CC(=O)Nc3ccc(Cl)cc3)c2)cc1`, the inhibition in assay [1] stood at 10%.
Consider `O=C(C[n+]1cccc(C(=O)Nc2ccccc2)c1)Nc1ccc(Cl)cc1`, for which the inhibition in assay [1] was found to be 17%.
On the same count and under the same terms, with `NS(=O)(=O)c1ccc(NC(=O)C[n+]2cccc(C(=O)Nc3ccc([N+](=O)[O-])cc3)c2)cc1` the figure was 8%.
Turning to `COc1ccc(NC(=O)C[n+]2cccc(C(=O)Nc3ccccc3)c2)cc1`, in assay [1], the inhibition stood at 4%.
`CC(=O)NS(=O)(=O)c1ccc(NC(=O)C[n+]2ccccc2)cc1`: the inhibition in assay [1] is 46%. For the same compound, the IC50 in assay [2] amounted to 12.7 µM.
For `C=CCNC(=O)c1ccc[n+](CC(=O)Nc2ccc(C)cc2)c1`, in assay [1], the inhibition is 23%.
Take `NS(=O)(=O)c1ccc(NC(=O)C[n+]2ccccc2)cc1`: the inhibition in assay [1] came out at 7%.
As for `Cc1ccc(NC(=O)C[n+]2ccccc2)cc1`, in assay [1], the inhibition result was “inactive”.
As for `CSc1ccc(NC(=O)C[n+]2cccc(C(=O)Nc3ccc(Cl)cc3)c2)cc1`, the inhibition in assay [1] was 24%.
As to `NC(=O)c1ccc[n+](CC(=O)Nc2ccc(Cl)cc2)c1`, the inhibition in assay [1] was determined as 24%.
`Cc1ccc(NC(=O)C[n+]2cccc(C(=O)Nc3ccccc3)c2)cc1`: the inhibition in assay [1] amounted to 59%. Besides, the IC50 in assay [2] came out at 7.4 µM.
With `C=CCNC(=O)c1ccc[n+](CC(=O)Nc2ccc(OC)cc2)c1`, in assay [1], the inhibition came to 32%. Further, in assay [2], the IC50 came to 48.5 µM.
For the compound `CSc1ccc(NC(=O)C[n+]2cccc(C(=O)Nc3ccccc3)c2)cc1`, the inhibition in assay [1] came out at 14%.
`COc1ccc(NC(=O)C[n+]2ccccc2)cc1`: the inhibition in assay [1] came to 43%. Moreover, in assay [2], the half-maximal inhibitory concentration (IC50) came out at 13.3 µM.
For `NC(=O)c1ccc[n+](CC(=O)Nc2ccc(S(N)(=O)=O)cc2)c1`, the inhibition in assay [1] was found to be 32%. Besides, in assay [2], the IC50 came to 12 µM.
With `NC(=O)c1ccc[n+](CC(=O)Nc2ccccc2)c1`, the inhibition in assay [1] came out at 37%. Besides, in assay [2], the IC50 is 13.3 µM.
For `Cc1ccc(NC(=O)C[n+]2cccc(C(=O)Nc3cccc(C)c3)c2)cc1`, the inhibition in assay [1] is 16%.
Regarding `COc1ccc(NC(=O)C[n+]2cccc(C(=O)Nc3ccc(Cl)cc3)c2)cc1`, the inhibition in assay [1] was 2%.
